From patent US4966900A, “Cephalosporin β-lactam compound and medicinal composition” (priority 1986, dated 1990)
Structures can show the parent of a compound that is named as a salt.

Assays:
in vivo = experiment: in vivo; parameters: species or system Macaco; conditions: monkey, 20 mg/kg
Experimental: Each of 20 mg/kg of the compounds obtained in Example 2, Example 25 and Example 28 was administered parenterally to Macaco and the half-time in blood was measured.
The concentrations of the compounds were measured according to HPLC method. Novapack C18 or Microbondapack C18 (trade name, produced by Waters Co.) was used as a column. Further, cefpiramide was used as a control drug.

E. cloacae 1Y247 = experiment: MIC; assay type: cell-based; conditions: Enterobacter cloacae, Table 6, read-out: MIC
Experimental: (§1) The minimum inhibition concentrations (MIC) of the compounds obtained in the respective examples described above were measured according to the standard method of Japanese Chemotherapy Association.

S. aureus IAA498 = experiment: MIC; assay type: cell-based; conditions: Staphylococcus aureus, Table 5
Experimental: as §1

S. aureus Smith = experiment: MIC; conditions: Staphylococcus aureus, Table 5
E. coli ML4707 = experiment: MIC; conditions: Escherichia coli, ML4707, E. coli ML4707; Table 5
E. coli GN5482 = experiment: MIC; conditions: Escherichia coli, GN5482, E. coli GN5482; Table 5
K. pneumoniae 4at521 = experiment: MIC; conditions: Klebsiella pneumoniae, 4AT521
E. colacae GN7471 = experiment: MIC; conditions: Table 5
E. cloacae 908RN = experiment: MIC; conditions: Enterobacter cloacae
C. freundii GN7391 = experiment: MIC; conditions: Citrobacter freundii, GN7391, C. freundii GN7391
S. marcescens GN10857 = experiment: MIC; conditions: Serratia marcescens, GN10857, S. marcescens GN10857; Table 5
P. vulgaris GN7919 = experiment: MIC; conditions: Proteus vulgaris, GN7919
P. aeruginosa GN10362 = experiment: MIC; conditions: Pseudomonas aeruginosa, GN10362
P. aeruginosa 4au542 = experiment: MIC; conditions: Pseudomonas aeruginosa, 4AU542, P. aeruginosa 4au542; Table 5
P. aeruginosa 5D58-1 = experiment: MIC; conditions: Pseudomonas aeruginosa, 5D581, P. aeruginosa 5D58-1; Table 5
P. cepacia OF189 = experiment: MIC; conditions: Burkholderia cepacia, OF189, P. cepacia OF189; Table 5
P. maltophilia OF247 = experiment: MIC; conditions: Stenotrophomonas maltophilia, Table 5
E. cloacae 5D52-2 = experiment: MIC; conditions: Enterobacter cloacae, 5D522
E. cloacae 5D63-2 = experiment: MIC; conditions: Enterobacter cloacae, 5D632
E. cloacae 1V25 = experiment: MIC; conditions: Enterobacter cloacae
C. freundii 5D60-1 = experiment: MIC; conditions: Citrobacter freundii, 5D601
C. freundii 1R523 = experiment: MIC; conditions: Citrobacter freundii, 1R523
C. freundii 1R524 = experiment: MIC; conditions: Citrobacter freundii, 1R524
C. freundii 1R526 = experiment: MIC; conditions: Citrobacter freundii, 1R526
C. freundii 1R527 = experiment: MIC; conditions: Citrobacter freundii, 1R527
C. freundii 1U589 = experiment: MIC; conditions: Citrobacter freundii, 1U589
C. freundii 1U692 = experiment: MIC; conditions: Citrobacter freundii, 1U692

half-life (in vivo) | MIC (E. cloacae 1Y247) | MIC (S. aureus IAA498) | MIC (S. aureus Smith) | MIC (E. coli ML4707) | MIC (E. coli GN5482) | MIC (K. pneumoniae 4at521) | MIC (E. colacae GN7471) | MIC (E. cloacae 908RN; E. cloacae 908RN, Table 6) | MIC (E. cloacae 908RN; E. colacae 908RN, Table 5) | MIC (C. freundii GN7391; Table 5) | MIC (C. freundii GN7391; Table 6) | MIC (S. marcescens GN10857) | MIC (P. vulgaris GN7919) | MIC (P. aeruginosa GN10362) | MIC (P. aeruginosa 4au542) | MIC (P. aeruginosa 5D58-1) | MIC (P. cepacia OF189) | MIC (P. maltophilia OF247) | MIC (E. cloacae 5D52-2) | SMILES | also measured
4 h | 12.5 mg/L | 12.5 mg/L | 6.25 mg/L | < 0.006 mg/L | < 0.006 mg/L | < 0.006 mg/L | 3.13 mg/L | 3.13 mg/L | 1.56 mg/L | 6.25 mg/L | 6.25 mg/L | 0.1 mg/L | 0.39 mg/L | 0.025 mg/L | 0.1 mg/L | 0.05 mg/L | < 0.006 mg/L | 0.1 mg/L | 0.39 mg/L | Cc1cc(SCC2=C(C(=O)O)N3C(=O)C(NC(=O)C(=NOC(C)(C)C(=O)NNC(=O)c4ccc(O)c(O)c4)c4csc(N)n4)C3SC2)n2ncc(C(=O)O)c2n1 (stereo not shown) [Example 25, 7-{2-[2-amino-1,3-thiazol-4-yl]-2-[1-(3-(3,4-dihydroxybenzoyl)carbazoyl)-1-methylethoxyimino]acetamide}-3-[(3-carboxy-5-methylpyrazolo[1,5-a]pyrimidin-7-yl)thiomethyl]-3-cephem-4-carboxylic acid.hydrochloride] | MIC (E. cloacae 5D63-2): 0.39 mg/L; MIC (E. cloacae 1V25): 6.25 mg/L; MIC (C. freundii 5D60-1): 0.78 mg/L; MIC (C. freundii 1R523): 0.2 mg/L; MIC (C. freundii 1R524): 0.1 mg/L; MIC (C. freundii 1R526): 0.2 mg/L; MIC (C. freundii 1R527): 0.1 mg/L; MIC (C. freundii 1U589): 0.39 mg/L; MIC (C. freundii 1U692): 0.39 mg/L
4.7 h | 0.78 mg/L | 25 mg/L | 12.5 mg/L | 0.012 mg/L | < 0.006 mg/L | < 0.006 mg/L | 0.78 mg/L | 1.56 mg/L | 0.78 mg/L | 0.78 mg/L | 1.56 mg/L | 0.2 mg/L | 0.78 mg/L | 0.05 mg/L | 0.39 mg/L | 0.1 mg/L | 0.012 mg/L | 0.39 mg/L | 0.1 mg/L | CC(C)(ON=C(C(=O)NC1C(=O)N2C(C(=O)O)=C(CSc3c4c(nc5c(C(=O)O)cnn35)CCC4)CSC12)c1csc(N)n1)C(=O)NNC(=O)c1ccc(O)c(O)c1 (stereo not shown) [Example 28, 7-{2-[2-Amino-1,3-thiazol-4-yl]-2-[1-(3-(3,4-dihydroxybenzoyl)carbazoyl)-1-methylethoxyimino]acetamide}-3-[(3-carboxy-6,7-dihydro-5H-cyclopenta[f]pyrazolo[1,5-a]pyrimidin-8-yl)thiomethyl]-3-cephem-4-carboxylic acid.hydrochloride] | MIC (E. cloacae 5D63-2): 0.2 mg/L; MIC (E. cloacae 1V25): 0.2 mg/L; MIC (C. freundii 5D60-1): 12.5 mg/L; MIC (C. freundii 1R523): 0.2 mg/L; MIC (C. freundii 1R524): 0.1 mg/L; MIC (C. freundii 1R526): 0.1 mg/L; MIC (C. freundii 1R527): 0.1 mg/L; MIC (C. freundii 1U589): 0.39 mg/L; MIC (C. freundii 1U692): 0.39 mg/L
